Experiment [1] deals with T1, arachidonate-5-lipoxygenase (Rattus norvegicus, UniProt P12527).
T1 construct: using prepared macrophages from Wistar rats; endogenous in cells; host or cells: prepared macrophages from Wistar rats
T1 sequence (P12527 1-673): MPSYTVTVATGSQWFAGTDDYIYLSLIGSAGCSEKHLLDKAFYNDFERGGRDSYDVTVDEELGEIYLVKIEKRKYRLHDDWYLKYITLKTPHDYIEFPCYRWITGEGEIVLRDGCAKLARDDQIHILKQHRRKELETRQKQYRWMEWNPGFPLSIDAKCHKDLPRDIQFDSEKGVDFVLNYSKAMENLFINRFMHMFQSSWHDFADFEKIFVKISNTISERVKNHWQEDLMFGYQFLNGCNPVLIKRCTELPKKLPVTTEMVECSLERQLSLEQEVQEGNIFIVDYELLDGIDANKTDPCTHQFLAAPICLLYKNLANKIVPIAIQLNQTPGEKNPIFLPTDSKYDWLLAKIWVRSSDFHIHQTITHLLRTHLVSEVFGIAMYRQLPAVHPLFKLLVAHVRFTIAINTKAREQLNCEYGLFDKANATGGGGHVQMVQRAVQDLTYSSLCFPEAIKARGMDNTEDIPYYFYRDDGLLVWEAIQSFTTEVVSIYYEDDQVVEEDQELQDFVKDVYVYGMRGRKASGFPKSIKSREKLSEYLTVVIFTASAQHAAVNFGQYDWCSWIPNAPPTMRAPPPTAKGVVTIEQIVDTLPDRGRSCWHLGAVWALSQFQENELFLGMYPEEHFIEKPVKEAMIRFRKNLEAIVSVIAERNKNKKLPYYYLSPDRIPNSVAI
The experiment in a line: Inhibition of 5-lipoxygenase in prepared macrophages from Wistar rats. Type of experiment: cell-based. The conditions noted are these: quadruple determinations, mean IC50, read-out: IC50 (50% inhibition of 5-lipoxygenase). An excerpt:
Murphy, R. C. and Matthews, W. R., Purification and Characterization of Leukotrienes from Mastocytoma Cells, Methods in Enzymology, 86, pp. 409-416.
Argentiere, D. D., Ritchie, D. M. et al., Tepoxalin: A Dual Cyclooxygenase/5-Lipoxygenase Inhibitor of Arachidonic Acid Metabolism with Potent Anti-inflammatory Activity and a Favorable Gastrointestinal Profile, The Journal of Pharmacology and Experimental Therapeutics, Vol. 271, No. 3, 1399-1408, 1994.
Carter, G. W., Young, P. R. et al., 5-Lipoxygenase Inhibitory activity of Zileuton, The Journal of Pharmacology and Experimental Therapeutics, Vol. 256, No. 3, 1991.
The experiments were all conducted as quadruple determinations, by combining four partial experiments in each case were combined to determine the mean IC50 value.

Experiment [2] has as its system SRS-A bronchoconstriction in guinea-pigs sensitized with ovalbumin. The experiment in a line: SRS-A bronchoconstriction in anaesthetized, ovalbumin-sensitized guinea-pigs after inhalation of antigen. In kind it is in vivo. The note with it: -2 hrs, 1% OA, 20 inspirations. The method, then: For this purpose, guinea-pigs are actively sensitized against ovalbumin (OA) with 20 μg OA+20 mg Al(OH)3 in 0.5 ml, administered intraperitoneally (i.p.) and a booster dose of the same is administered 14 days later. One week after the booster dose, the animals are i.p. anaesthetized with urethane and connected to an apparatus (Mumed Physiological Recorder 800) for the determination of pulmonary function parameters. The animals are pretreated with mepyramine to antagonize the histamine, with indomethacin to inhibit the formation of prostaglandins, and with propanolol to eliminate β-adrenergic mechanisms. If an allergic reaction is induced after this treatment, the associated bronchospam is extensively attributable to the effect of leukotrienes.
Before the experiment the test substances were administered orally two hours before the challenge. After an equilibration period an asthmatic challenge attack is induced by the nebulization of a 1% ovalbumin solution over 20 inspirations.
The drop in dynamic compliance is used as a suitable and well reproducible parameter for characterizing the action of leukotrienes. Under control conditions, after pretreatment and ovalbumin challenge, guinea-pigs react with a slow drop in compliance of c. 30-40% over 15 minutes.

For experiment [3], the system named is tracheal segments from actively sensitized guinea-pigs. The experiment is described as follows: Inhibition of the antigen (ovalbumin)-induced contraction of isolated tracheal segments from actively sensitized guinea-pigs. The note with it: Cavia porcellus; at 1.0 μmol/l; under mepyramine and indomethacin protection; read-out: maximum inhibition (ovalbumin-induced contraction). Also on record: species or system guinea-pig. The method, then: For this purpose, isolated tracheal segments from guinea-pigs actively sensitized against ovalbumin by the s.c. administration of 10 μg of ovalbumin with 1 mg of aluminum hydroxide adjuvant, three weeks before removal of the organ, and a booster dose of the same amount of ovalbumin and aluminum hydroxide s.c. one week before removal of the organ. The segments were placed in organ baths filled with a nutrient solution aerated with carbogen which is a mixture of 95% oxygen and 5% carbon dioxide, and kept at 37° C., and were connected to isometric force transducers. After preincubation with mepyramine to eliminate histamine, and indomethacin for the inhibition of cyclooxygenase, 5×10^-7 mol/l carbachol (carbamylcholine chloride) was added and a contraction was induced. 10 μg/ml ovalbumin as an allergen was then added to the bath liquid and the maximum contraction of the tracheal segments which was thereby induced was correlated with the effect of the carbachol as control (=100%). The test substances were added to the organ bath 30 minutes before the allergen-induced contraction. Table 2 below indicates the IC50 values, i.e. the concentrations which cause a 50% inhibition of the contraction of isolated tracheal segments from the guinea-pig. The IC50 values were determined by testing 3-4 concentrations on 4-8 organs in each case.

The test system of a further experiment is late phase eosinophilia. The experiment in a line: Inhibition of late phase eosinophilia 24 hours after the inhalational ovalbumin challenge on actively sensitized guinea-pigs. The conditions noted are these: -2 h; for EOS, B (eosinophils in the group treated with the substance, with challenge): x ± s. In kind it is in vivo. An excerpt: Eosinophilic granulocytes play an important part in the transition of allergic diseases, e.g. bronchial asthma, to the chronic stage. Thus the bronchoalveolar lavage fluid (BAL) contains an increased number of eosinophils a few hours after an allergen-induced asthmatic attack. Eosinophils are expected to play an important part in cell damage since they contain histotoxic proteins, like major basic protein (MBP) and eosinophil cation protein (ECP), in their granula. It is also assumed that substances which prevent the infiltration of eosinophils have a therapeutic action against allergic diseases like bronchial asthma.
The inhibition of eosinophil infiltration by the substances was tested in vivo on guinea-pigs actively sensitized against ovalbumin by the substantenous administration of 10 μg of OA, with 1 μg of aluminum hydroxide adjuvant, three weeks before the beginning of the experiment, and a booster dose containing the same amount of OA and aluminum hydroxide was administrated substantaneously one week before the beginning of the experiment. Three weeks after the first sensitization, the animals were placed in a plastic box and exposed to an aerosol of 0.5% OA dissolved in a physiological saline solution. The nebulization time was 20-30 seconds. After 24 hours the animals were intraperitoneally anaesthetized with 1.5 g/kg body weight ethylurethane and a bronchioalveolar lavage was performed with 2×5 ml of physiological saline solution. The lavage fluid was collected and centrifuged at 400 G for 10 minutes and the cell pellet was then resuspended in 1 ml of physiological saline solution. The eosinophils were microscopically counted in a Neubauer chamber after staining using the No. 5877 Becton-Dickinson test kit for eosinophilia. The number of eosinophils was indicated in millions per animal. Each test was also carried out with two control groups with and without antigen challenge.
The percentage inhibition of the eosinophilia in the experimental groups treated with the substance is calculated by the following formula:
(A-C)-(B-C)/(A-C)×100=% inhibition
The test substances were administered orally or intraperitoneally as a triturate in 0.5% 5-hydroxyethylcellulose two hours before the antigen challenge.

This note sets out measurements from US5776932A, “1,3,5-tribsubstituted indazole derivatives, processes for preparing, and for pharmacological treatment therewith” (Arzneimittelwerk Dresden G.m.b.H., priority 1996, dated 1998).

As for “1-(2,4-dimethylbenzyl)-5-methoxy-1H-indazole-3-ol [Example 18]”, the IC50 (usually the midpoint of a concentration-inhibition curve) in experiment [1] came out at 977 nM. For `COc1ccc2c(c1)c(O)nn2Cc1cccc(Cl)c1` [Example 3, 1-(3-chlorobenzyl)-5-methoxy-1H-indazole-3-ol], the IC50 in experiment [1] came out at 470 nM. Take `COc1ccc2c(c1)c(O)nn2Cc1cccc(Cl)c1F` [Example 10, 1-(3-chloro-2-flurobenzyl)-5-methoxy-1H-indazole-3-ol]: the IC50 in experiment [1] turned out to be 829 nM. In the case of `Oc1ccc2c(c1)c(O)nn2Cc1ccc(Cl)c(Cl)c1` [Example 51, 1-(3,4-dichlorobenzyl)-1H-indazole-3,5-diol], in experiment [1], the half-inhibitory concentration (IC50) was found to be 748 nM. `COc1ccc2c(c1)c(O)nn2Cc1ccc(OCc2ccccc2)cc1` [[no label printed]]: in experiment [2] (5.0 mg/kg oral), the “% drop in dyn. compliance” value came to 32 ± 13% and the % inhibition (usually the share of the control response that was lost under treatment) is 20%. Moreover, in experiment [2] (10.0 mg/kg oral), the “% drop in dyn. compliance” value was determined as 9.3 ± 11% and the “% inhibition” value came out at 77%.

For the compound `COc1ccc2c(c1)c(O)nn2Cc1ccc2ccccc2c1` [Example 23, 5-methoxy-1-naphthalen-2-ylmethyl-1H-indazole-3-ol], in experiment [1], the IC50 is 265 nM. As to `COc1ccc2c(c1)c(O)nn2Cc1ccc(Cl)cc1` [Example 2, 1-(4-chlorobenzyl)-5-methoxy-1H-indazole-3-ol], the IC50 in experiment [1] was determined as 400 nM. Regarding `COc1ccc2c(c1)c(O)nn2Cc1ccc(Br)cc1` [Example 11, 1-(4-bromobenzyl)-5-methoxy-1H-indazole-3-ol], the IC50 in experiment [1] was 765 nM.

`COc1ccc2c(c1)c(O)nn2Cc1ccc(Cl)cc1Cl` [Example 7, 1-(2,4-dichlorobenzyl)-5-methoxy-1H-indazole-3-ol]: the IC50 in experiment [1] is 100 nM. Regarding `COc1ccc2c(c1)c(O)nn2CCC(=O)c1ccccc1` [Example 39, 3-(3-hydroxy-5-methoxyindazole-1-yl)phenyl-propan-1-one], the IC50 in experiment [1] was determined as 150 nM. Regarding `COc1ccc2c(c1)c(O)nn2Cc1cc2c(cc1Cl)OCO2` [Example 31], the IC50 in experiment [1] came to 874 nM.

Consider `COc1ccc2c(c1)c(O)nn2Cc1c(Cl)cccc1Cl` [Example 8, 1-(2,6-dichlorobenzl)-5-methoxy-1H-indazole3-ol], for which the IC50 in experiment [1] was 750 nM.

With `COc1ccc2c(c1)c(O)nn2CCCOc1ccccc1` [Example 38, 5-methoxy-1-(3-phenoxypropyl)-1H-indazole-3-ol], the half-inhibitory concentration (IC50) in experiment [1] was 655 nM. For the compound `COc1ccc2c(c1)c(O)nn2CCOc1ccccc1` [Example 37, 5-methoxy-1-(3-phenoxyethyl)-1H-indazole-3-ol], in experiment [1], the IC50 was found to be 745 nM. Take `COc1ccc2c(c1)c(O)nn2Cc1ccc(OCc2ccc3ccccc3n2)cc1` [Example 49]: in experiment [1], the IC50 turned out to be 86 nM. With `O=C(Nc1ccc(Cl)c(Cl)c1)Nc1ccc2c(c1)c(O)nn2Cc1ccc(Cl)cc1` [Example 61, 1-[1-(4-chlorobenzyl)-3-hydroxy-1H-indazole-5-yl]-3-(3,4-dichlorophenyl)urea], in experiment [1], the half-inhibitory concentration (IC50) is 278 nM. Take `COc1ccc2c(c1)c(O)nn2Cc1ccc(C(C)(C)C)cc1` [Example 19, 1-(4-tert-butylbenzyl)-5-methoxy-1H-indazole-3-ol]: the IC50 in experiment [1] was determined as 696 nM.

For `COc1ccc2c(c1)c(O)nn2Cc1cccs1` [Example 24, 5-methoxy-1-thiophen-2-ylmethyl-1H-indazole-3-ol], the IC50 in experiment [1] is 500 nM. On to `COc1ccc2c(c1)c(O)nn2CC=Cc1ccccc1` [Example 36, 5-methoxy-1-(3-phenylallyl)-1H-indazole-3-ol], for which the IC50 in experiment [1] came out at 299 nM. Regarding `COc1ccc2c(c1)c(O)nn2Cc1ccc(OCc2ccccc2)cc1` [Example 1, 1-(4-benzyloxybenzyl)-5-methoxy-1H-indazole-3-ol], the IC50 in experiment [1] was determined as 171 nM. Besides, in experiment [3], the inhibition (as a rule, the relative decrease from the control value, in per cent) at 1 µM was 36%. Further, in the experiment on late phase eosinophilia (1 mg/kg i.p.), the “% inhibition (eosinophilia)” value is recorded as 48.7% and the “EOS, B (eosinophils in the group treated with the substance, with challenge)” value worked out at 3.3 ± 1.6 mill./animal. For the same compound, in the experiment on late phase eosinophilia (30 mg/kg p.o.), the “% inhibition (eosinophilia)” value worked out at 36.0% and the “EOS, B (eosinophils in the group treated with the substance, with challenge)” value is 3.7 ± 1.7 mill./animal. `COc1ccc2c(c1)c(O)nn2Cc1ccccc1Cl` [Example 4, 1-(2-chlorobenzyl)-5-methoxy-1H-indazole-3-ol]: the IC50 in experiment [1] came out at 710 nM. Still for that read-out and setting: the figure for `COc1ccc2c(c1)c(O)nn2Cc1ccc(-c2ccccc2)cc1` [Example 22, 1-biphenyl-4-ylmethyl-5-methoxy-1H-indazole-3-ol] is 257 nM. As to `COc1ccc2c(c1)c(O)nn2CCCC(=O)c1ccc(F)cc1` [Example 42, 1-(4-fluorophenyl)-4-(3-hydroxy-5-methoxy-1H-indazole-1-yl)butan-1-one], the IC50 in experiment [1] was found to be 679 nM. Still for that read-out and setting: the figure for `Oc1ccc2c(c1)c(O)nn2Cc1ccc(Cl)cc1Cl` [Example 52, 1-(2,4-dichlorobenzyl)-1H-indazole-3,5-diol] is 258 nM.
